The record followed here is the PolyMetriX glass transition set.

Assay in series [1]: not given
This is another data set of the same source.

Assay in series [2]: not given
The source holds these as a separate data set.

Assay in series [3]: not given
This is another data set of the same source.

Assay in series [4]: not given
The source holds these as a separate data set.

± gives the standard deviation of the reports.

Consider `*c1ccc(N(c2ccc(-c3ccc4c(c3)C(CCCCCCCC)(CCCCCCCC)c3cc(*)ccc3-4)cc2)c2ccc(C(C)CC)cc2)cc1` (repeat unit), for which the glass transition temperature worked out at 140.00 °C. Still for that read-out and setting: for `*c1ccc2c(c1)C(CCCCCCCCCCCC)(CCCCCCCCCCCC)c1cc(*)ccc1-2` (repeat unit) the value was 16.00 °C; for `*c1ccc2c(c1)C(CCCCCCCC)(CCCCCCCC)c1cc(-c3sc(-c4ccc(-c5cc(CCCCCC)c(*)s5)c5nsnc45)cc3CCCCCC)ccc1-2` (repeat unit), 79.00 °C; for `*c1ccc(-c2ccc(-c3cc4c5c(c(*)cc6c5c3C(=O)N(CC(CCCCCCCC)CCCCCCCCCC)C6=O)C(=O)N(CC(CCCCCCCC)CCCCCCCCCC)C4=O)s2)s1` (repeat unit), 74.00 °C. `*c1cc2c(OCC(CC)CCCC)c3sc(-c4sc(*)c5c(F)c(C(=O)OCC(CC)CCCC)sc45)cc3c(OCC(CC)CCCC)c2s1` (repeat unit) came in with a glass transition temperature of 40.00 °C.

As for `*C=Cc1cc(OC)c(C=Cc2cc(OC)c(*)cc2OC)cc1OCC(CC)CCCC` (repeat unit), the glass transition temperature came to 113.00 °C. The same measure, in the same setting: for `*c1ccc(-c2ccc(OCCCCCC)c(-c3cc(*)ccc3OCCCCCC)c2)cc1` (repeat unit) the value was 117.00 °C; for `*c1ccc(-c2ccc(OCCCCCCCC)c(-c3cc(*)ccc3OCCCCCCCC)c2)cc1` (repeat unit), 87.00 °C.

`*c1cc(CCCCCCCCCCCCCC)c(-c2sc(-c3cc4sc(*)cc4s3)cc2CCCCCCCCCCCCCC)s1` (repeat unit) yielded a glass transition temperature of 5.00 °C. Same read-out and setting: the same measure for `*c1ccc(-c2sc(-c3c(F)c(F)c(-c4cc(CC(CCCCCCCC)CCCCCCCCCC)c(-c5ccc(*)s5)s4)c4nsnc34)cc2CC(CCCCCCCC)CCCCCCCCCC)s1` (repeat unit): 28.00 °C. Take `*c1ccc(P(=O)(c2ccccc2)c2ccc(-n3c(=O)c4cc5c(=O)n(*)c(=O)c5cc4c3=O)cc2)cc1` (repeat unit): in series [1], the glass transition temperature stood at 425.00 °C. The molecule `*c1cc(N2C(=O)c3ccc(-c4ccc5c(c4)C(=O)N(*)C5=O)cc3C2=O)ccc1OCC(F)(F)C(F)(F)C(F)(F)C(F)(F)C(F)(F)C(F)(F)C(F)(F)F` (repeat unit) returned a glass transition temperature in series [1] of 250.00 °C. Regarding `*c1cc(N2C(=O)c3ccc(-c4ccc5c(c4)C(=O)N(*)C5=O)cc3C2=O)ccc1OCC(F)(F)C(F)(F)C(F)(F)F` (repeat unit), in series [1], the glass transition temperature worked out at 300.00 °C. On the same count and under the same terms, for `*c1cc(N2C(=O)c3ccc(-c4ccc5c(c4)C(=O)N(*)C5=O)cc3C2=O)ccc1OCC(F)(F)C(F)(F)C(F)(F)C(F)(F)C(F)(F)C(F)(F)C(F)(F)C(F)(F)C(F)(F)C(F)(F)F` (repeat unit) the value was 230.00 °C; for `*c1ccc(-c2ccc(N3C(=O)c4ccc(-c5ccc6c(c5)C(=O)N(*)C6=O)cc4C3=O)cc2OC(F)(F)F)c(OC(F)(F)F)c1` (repeat unit), 335.00 °C; for `*c1cccc(Oc2ccc(P(=O)(c3ccccc3)c3ccc(Oc4ccc(N5C(=O)c6ccc(-c7ccc8c(c7)C(=O)N(*)C8=O)cc6C5=O)cc4)cc3)cc2)c1` (repeat unit), 241.00 °C. In series [1], `*c1ccc2c(c1)C(=O)N(c1cc(C(F)(F)F)cc(N3C(=O)c4ccc(C(*)(C(F)(F)F)C(F)(F)F)cc4C3=O)c1OC(c1c(F)c(F)c(F)c(F)c1F)c1c(F)c(F)c(F)c(F)c1F)C2=O` (repeat unit) showed a glass transition temperature of 321.70 °C. On the same count and under the same terms, for `*c1ccc2c(c1)C(=O)N(c1cc(N3C(=O)c4ccc(S(*)(=O)=O)cc4C3=O)cc(C(F)(F)F)c1)C2=O` (repeat unit) the value was 310.00 °C; for `*c1ccc2c(c1)C(=O)N(c1cc(N3C(=O)c4ccc(*)cc4C3=O)cc(C(F)(F)F)c1)C2=O` (repeat unit), 329.00 °C. Turning to `*c1ccc2c(c1)C(=O)N(c1ccc(-c3ccc(N4C(=O)c5ccc(C(*)(C(F)(F)F)C(F)(F)F)cc5C4=O)cc3-c3cc(C(F)(F)F)cc(C(F)(F)F)c3)c(-c3cc(C(F)(F)F)cc(C(F)(F)F)c3)c1)C2=O` (repeat unit), the glass transition temperature in series [1] amounted to 263.00 °C. With `*c1ccc2c(c1)C(=O)N(c1ccc(Oc3c(F)c(F)c(-c4c(F)c(F)c(Oc5ccc(N6C(=O)c7ccc(C(*)(C(F)(F)F)C(F)(F)F)cc7C6=O)cc5)c(F)c4F)c(F)c3F)cc1)C2=O` (repeat unit), in series [1], the glass transition temperature worked out at 271.20 °C. On the same count and under the same terms, the same measure for `*c1ccc2c(c1)C(=O)N(c1ccc(OCC(F)(F)C(F)(F)C(F)(F)C(F)(F)C(F)(F)C(F)(F)C(F)(F)F)c(N3C(=O)c4ccc(C(*)(C(F)(F)F)C(F)(F)F)cc4C3=O)c1)C2=O` (repeat unit): 226.00 °C; for `*c1ccc2c(c1)C(=O)N(c1ccc(OCC(F)(F)C(F)(F)C(F)(F)C(F)(F)C(F)(F)C(F)(F)C(F)(F)C(F)(F)C(F)(F)C(F)(F)F)c(N3C(=O)c4ccc(C(*)(C(F)(F)F)C(F)(F)F)cc4C3=O)c1)C2=O` (repeat unit): 189.00 °C; for `*c1cccc2c1C(=O)N(c1ccc(C3(c4ccc(N5C(=O)c6cccc(*)c6C5=O)c(C)c4)c4ccccc4-c4ccccc43)cc1C)C2=O` (repeat unit): 313.00 ± 2.8 °C. On the same count and under the same terms, for `*Sc1ccc2c(c1)C(=O)N(c1ccc(Oc3ccc(N4C(=O)c5cccc(*)c5C4=O)cc3)cc1)C2=O` (repeat unit) the value was 267.50 ± 8.4 °C; for `*Oc1cccc(C(=O)c2ccc(Oc3cccc4c3C(=O)N(c3ccc(Oc5ccc(N6C(=O)c7cccc(*)c7C6=O)cc5)cc3)C4=O)cc2)c1` (repeat unit), 252.00 °C; for `*Oc1cccc2c1C(=O)N(c1cccc(C(=O)c3cccc(N4C(=O)c5cccc(*)c5C4=O)c3)c1)C2=O` (repeat unit), 234.00 °C.

The molecule `*Oc1ccc2c(c1)C(=O)N(c1cccc(C(=O)c3cccc(N4C(=O)c5ccc(*)cc5C4=O)c3)c1)C2=O` (repeat unit) displayed a glass transition temperature in series [1] of 239.00 ± 4 °C. In series [2], `*c1nc(C(F)(F)F)nc(C(F)(OC(F)(F)C(F)(F)C(F)(F)C(F)(F)C(F)(F)C(F)(F)OC(*)(F)C(F)(F)F)C(F)(F)F)n1` (repeat unit) [Perfluoropolymer 1] gave a glass transition temperature of -13.6 ± 0.7 °C.

As for `*CC(*)(C)C(=O)OCC(CC)CC` (repeat unit) [Poly(2-ethylbutyl methacrylate) ], the glass transition temperature in series [2] worked out at 10.4 ± 0.7 °C. For `*CC(*)C(=O)OC(C)CCCCC` (repeat unit) [Poly(2-heptyl acrylate) ], the glass transition temperature in series [2] is -39 ± 1.4 °C. On the same count and under the same terms, the same measure for `*CC(*)c1ccccc1CC` (repeat unit) [Poly(o-ethyl styrene) ]: 102 ± 1.4 °C; for `*CC(*)c1ccc(CO)cc1` (repeat unit) [Poly(p-hydroxymethyl styrene) ]: 139 ± 1.4 °C. Consider `*CC(*)OCCC` (repeat unit) [Poly(propyl vinyl ether)], for which the glass transition temperature in series [3] is -49 °C.

For the molecule `*CC(*)OC(=O)CCC` (repeat unit) [Poly(vinyl butyrate) ], the glass transition temperature in series [2] came to 2 ± 4.2 °C. The same measure, in the same setting: the same measure for `*Oc1ccc(Oc2ccc(Oc3ccc4c(c3)C(=O)N(CCCCCCN3C(=O)c5ccc(*)cc5C3=O)C4=O)cc2)cc1` (repeat unit) [Polyetherimide 1 ]: 126.4 ± 2.1 °C.

In series [4], `*CC(*)OC(=O)C=Cc1ccccc1` (repeat unit) [poly(vinyl cinnamate)] registered a glass transition temperature of 77 °C.
